Test results published in patent US20070020713A1, “Antibodies to the fuel oxygenate mtbe and use thereof in immunoassays” (priority 2003, published 2007).
Counter-ions that a name gives are not always drawn.

Tested on: anti-MTBE antibody prepared in Example 1 (anti-MTBE/7-methoxy-3,7-dimethyloctanal antibody)
Assay: Anti-MTBE monoclonal antibody cross-reactivity, indirect competitive ELISA
Type: binding
Details: for IC50 (concentration of analyte required to inhibit the maximum assay signal B0 by 50%): B/B0=50%, read from FIG. 4

SMILES | IC50 (concentration of analyte required to inhibit the maximum assay signal B0 by 50%) [mg/L] | cross-reactivity of the antibody (FIG. 4)
COC(C)(C)C [MTBE, methyl tert-butyl ether] | ~10 | –
CC(C)(C)OC=O [TBF, tert-butyl formate] | ~60 | –
CCC(C)(C)OC [TAME, methyl tert-amyl ether] | ~10 | –
CC(C)(C)O [TBA, tert-butyl alcohol] | ~180 | –
CO [methanol] | – | no significant cross-reactivity
